Data: the supplement of paper PMC10307832

Tests used:
Assay in all cases: relative viability (nuclei count vs DMSO), 5 days (fraction); higher = more cells survive
IPA-3 + Trametinib = compound: C1=CC=C2C(=C1)C=CC(=C2SSC3=C(C=CC4=CC=CC=C43)O)O [IPA-3] + CC(=O)Nc1cccc(-n2c(=O)n(C3CC3)c(=O)c3c(Nc4ccc(I)cc4F)n(C)c(=O)c(C)c32)c1 [Trametinib] (partner 0.02 µM)
Outline: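 A single step with final 0.05% Triton X-100, 1% formaldehyde and 1 ug/ml Hoechst fixed the cells and stained nuclei 5 days after treatment. Lung cancer cell lines in 1536-well plates had been treated by pin tool the day after seeding with one drug alone or a fixed anchor-drug dose plus five library-drug doses (not always all listed) in √10 steps, and nuclei were counted on 4× images. Relative viability is the ratio of nuclei in treated wells to nuclei in vehicle wells, taken as the median of duplicate plates.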

IPA-3 = compound: C1=CC=C2C(=C1)C=CC(=C2SSC3=C(C=CC4=CC=CC=C43)O)O [IPA-3]
Outline: (§1)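 Lung cancer cell lines in 1536-well plates were kept overnight at 37 °C, then pinned with five library-drug doses (not always all listed) spaced by √10 on vehicle-anchored plates. After 5 days without medium change, cells were fixed, permeabilised and Hoechst-stained in one step, imaged at 4×, and nuclei were counted with MetaXpress. Viability is treated-well nuclei divided by vehicle-well nuclei, taken as the median over plates. Plates passed only with control CV below 25% and at least one doubling.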

Doramapimod = compound: Cc1ccc(-n2nc(C(C)(C)C)cc2NC(=O)Nc2ccc(OCCN3CCOCC3)c3ccccc23)cc1 [Doramapimod]
Outline: as §1

RAF265 = compound: Cn1c(Nc2ccc(C(F)(F)F)cc2)nc2cc(Oc3ccnc(-c4ncc(C(F)(F)F)[nH]4)c3)ccc21 [RAF265]
Outline: as §1

Cell Line	relative viability (IPA-3 + Trametinib; first compound 0.2 µM)	relative viability (IPA-3 + Trametinib; first compound 0.6325 µM)	relative viability (IPA-3 + Trametinib; first compound 2 µM)	relative viability (IPA-3 + Trametinib; first compound 6.325 µM)	relative viability (IPA-3 + Trametinib; first compound 20 µM)	relative viability (IPA-3; 0.2 µM)	relative viability (IPA-3; 0.6325 µM)	relative viability (IPA-3; 2 µM)	relative viability (IPA-3; 6.325 µM)	relative viability (IPA-3; 20 µM)	relative viability (Doramapimod; 0.02 µM)	relative viability (Doramapimod; 0.06325 µM)	relative viability (Doramapimod; 0.2 µM)	relative viability (Doramapimod; 0.6325 µM)	relative viability (Doramapimod; 2 µM)	relative viability (RAF265; 0.01 µM)	relative viability (RAF265; 0.03162 µM)	relative viability (RAF265; 0.1 µM)	relative viability (RAF265; 0.3162 µM)	relative viability (RAF265; 1 µM)
NCI-H727	0.373	0.409	0.402	0.344	0.417	0.929	0.938	0.816	0.901	0.899	0.971	0.972	1.05	0.885	0.787	0.932	0.908	0.834	0.7	0.62
HARA	0.884	0.899	0.63	0.591	1.02	1.28	0.977	1.04	1.05	1.21	1.02	0.948	0.811	1.19	0.754	1.07	0.982	0.949	0.693	0.584
NCI-H2228	0.768	0.405	0.365	0.634	0.379	1.44	0.864	1.04	1.05	1.02	1.13	0.988	1.02	1.07	0.795	0.967	0.89	0.926	0.498	0.309
LCLC-97TM1	0.221	0.206	0.205	0.218	0.223	1.04	0.868	0.851	0.908	0.981	0.916	1.04	0.961	0.811	0.86	1.04	0.899	0.531	0.637	0.418
LC-2-ad	0.958	0.943	0.93	0.948	0.889	1.05	0.958	0.978	1.03	0.992	0.991	1.02	1.07	1.02	0.923	1.09	0.989	1.11	0.748	0.484
SK-LU-1	0.585	0.474	0.506	0.467	0.571	1.35	0.981	1.08	0.985	1.16	1.02	1.07	1.11	1.14	1.12	1.1	0.893	0.858	0.56	0.494
EKVX	0.403	0.314	0.359	0.38	0.376	1.08	0.994	1.05	1.01	1.32	0.971	0.968	0.876	1	0.952	1.11	0.988	1.09	0.573	0.796
HCC-827	0.553	0.518	0.585	0.597	0.675	1.07	1.05	1.05	0.955	0.978	1.02	1.05	1.07	0.902	0.863	1.03	0.963	1.05		0.903
NCI-H650	1.11	0.973	0.888	1.1	1.32	1.2	0.977	0.861	1.03	1.12	0.965	1.02	1.11	0.901	0.913	1.07	0.845	0.969	0.615	0.51
CAL-12T	0.505	0.366	0.232	0.338	0.457	1.15	0.846	0.967	0.93	1.03	0.995	0.976	1.03	1.01	0.931	1.08	0.955	0.936	0.723	0.603
NCI-H1648	0.476	0.495	0.555	0.494	0.524	1.25	0.889	1.02	0.65	0.793	0.925	1.19	0.898	0.835	0.719	0.936	0.842	0.919	0.593	0.589
NCI-H522	0.828	0.792	0.822	0.875	0.711	1.05	0.889	0.978	1.07	1.08	0.946	0.978	0.79	0.925	0.86	1.15	1.1	0.941	0.812	0.961
IA-LM						1.15	0.758	1.03	0.876	0.892	0.921	0.977	0.906	0.982	0.913	0.941	0.855	0.91	0.801	0.755
EPLC-272H	0.327	0.337	0.273	0.301	0.319	1.04	0.96	1	0.905	1.1	0.929	0.899	1.01	0.7	0.837	0.895	0.734	0.688	0.469	0.356
A-427	0.798	0.769	0.705	0.629	0.732	1.14	0.965	0.976	0.962	1.11	0.962	1.03	1.1		0.985	1.03	0.862	1.01	0.575	0.356
NCI-H647	0.69	0.445	0.558	0.284	0.0977	1.27	0.906	0.88	0.758	0.568	1.05	1.03	1.07	0.995	0.913	0.931	0.974	0.886	0.645	0.505
